Results published in paper PMC4208094, “Optical control of insulin release using a photoswitchable sulfonylurea” (Nature Communications, 2014).

How the values were obtained:
SUR1 [1] = target: T1, SUR1 (Rattus norvegicus, UniProt Q09429); assay: whole-cell patch clamp of heterologous KATP channels, […] tolbutamide; assay type: cell-based; set-up: gene Abcc8; rat SUR1 (Genbank L40624) co-expressed with Kir6.2 in HEK293t cells; with Kir6.2
Target sequence in this assay (Q09429 whole entry): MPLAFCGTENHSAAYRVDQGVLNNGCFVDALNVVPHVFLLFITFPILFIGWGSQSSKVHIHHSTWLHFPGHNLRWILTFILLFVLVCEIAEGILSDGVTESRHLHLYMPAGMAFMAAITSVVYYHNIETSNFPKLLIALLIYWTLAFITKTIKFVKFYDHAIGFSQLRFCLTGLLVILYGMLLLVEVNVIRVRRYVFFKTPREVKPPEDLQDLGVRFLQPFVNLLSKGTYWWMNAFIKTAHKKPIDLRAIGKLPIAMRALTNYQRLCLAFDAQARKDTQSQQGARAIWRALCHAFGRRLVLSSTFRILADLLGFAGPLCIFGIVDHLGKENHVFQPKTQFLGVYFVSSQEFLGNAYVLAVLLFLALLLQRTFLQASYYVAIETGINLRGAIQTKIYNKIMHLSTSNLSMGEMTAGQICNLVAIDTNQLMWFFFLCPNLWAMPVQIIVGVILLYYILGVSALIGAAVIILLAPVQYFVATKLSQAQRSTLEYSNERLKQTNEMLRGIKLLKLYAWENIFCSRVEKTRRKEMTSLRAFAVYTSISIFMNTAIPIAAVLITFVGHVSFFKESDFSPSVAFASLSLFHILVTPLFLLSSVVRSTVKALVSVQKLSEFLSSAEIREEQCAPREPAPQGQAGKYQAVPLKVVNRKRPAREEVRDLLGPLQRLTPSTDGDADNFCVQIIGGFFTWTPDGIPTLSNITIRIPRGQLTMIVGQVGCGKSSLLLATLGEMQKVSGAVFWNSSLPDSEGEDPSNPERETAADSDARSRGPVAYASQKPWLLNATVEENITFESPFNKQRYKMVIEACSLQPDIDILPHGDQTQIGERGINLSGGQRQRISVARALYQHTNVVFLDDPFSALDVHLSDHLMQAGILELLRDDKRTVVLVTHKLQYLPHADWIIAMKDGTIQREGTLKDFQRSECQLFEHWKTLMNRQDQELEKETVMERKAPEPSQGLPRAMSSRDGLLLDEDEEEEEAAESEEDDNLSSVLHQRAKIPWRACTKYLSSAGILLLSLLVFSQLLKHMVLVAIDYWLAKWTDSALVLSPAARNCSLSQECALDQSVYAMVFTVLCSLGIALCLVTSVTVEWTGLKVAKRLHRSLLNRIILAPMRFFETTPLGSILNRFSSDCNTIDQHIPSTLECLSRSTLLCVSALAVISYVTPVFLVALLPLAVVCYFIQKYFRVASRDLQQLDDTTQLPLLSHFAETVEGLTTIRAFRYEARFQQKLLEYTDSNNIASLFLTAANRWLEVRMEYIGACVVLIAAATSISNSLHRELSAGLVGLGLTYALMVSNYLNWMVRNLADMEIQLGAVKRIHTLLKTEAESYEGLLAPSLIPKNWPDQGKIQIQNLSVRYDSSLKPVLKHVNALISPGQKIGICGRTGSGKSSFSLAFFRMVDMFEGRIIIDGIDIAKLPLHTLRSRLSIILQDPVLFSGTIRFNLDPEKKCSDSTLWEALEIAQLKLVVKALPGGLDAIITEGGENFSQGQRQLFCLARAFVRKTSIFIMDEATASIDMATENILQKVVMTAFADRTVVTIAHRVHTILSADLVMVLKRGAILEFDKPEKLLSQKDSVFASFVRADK
Target sequence in this assay (Q61743 whole entry partner): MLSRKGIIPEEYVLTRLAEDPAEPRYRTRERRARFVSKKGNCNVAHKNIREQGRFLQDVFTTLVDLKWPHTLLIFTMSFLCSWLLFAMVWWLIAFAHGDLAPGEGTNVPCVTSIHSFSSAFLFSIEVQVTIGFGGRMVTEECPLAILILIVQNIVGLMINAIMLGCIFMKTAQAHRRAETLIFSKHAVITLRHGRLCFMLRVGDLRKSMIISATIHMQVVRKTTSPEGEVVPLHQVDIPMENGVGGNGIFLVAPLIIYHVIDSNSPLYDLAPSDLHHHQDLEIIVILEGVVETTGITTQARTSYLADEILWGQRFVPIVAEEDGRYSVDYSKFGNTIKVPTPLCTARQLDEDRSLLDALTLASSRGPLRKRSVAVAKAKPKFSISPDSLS

SUR1 [2] = target: T1, SUR1; assay: [3H]-glibenclamide displacement in SUR1-expressing HEK293t cells under illumination; assay type: cell-based; set-up: gene Abcc8
Target sequence in this assay (Q09429 whole entry): as the sequence (Q09429 whole entry) above

Compound | KATP current response (SUR1 [1]) | IC50 (SUR1 [2]) [µM]
CCCCNC(=O)NS(=O)(=O)c1ccc(C)cc1 [tolbutamide] | Tolbutamide and diazoxide-sensitive inward-rectifying K^+ currents could be recorded in transfected cells | –
CCN(CC)c1ccc(/N=N\c2ccc(S(=O)(=O)NC(=O)NC3CCCCC3)cc2)cc1 [JB253, (Z)-N-(cyclohexylcarbamoyl)-4-((4-(diethylamino)phenyl)diazenyl)benzenesulfonamide] | – | 14.8
